# Tests used:
# [1] = test system: HEK 293T cells; test: Two plasmid DR-GFP/I-SceI double strand break repair (homologous recombination) assay; assay type: cell-based, human
# Source text: In addition to being indispensable for the duplication of chromosomes, Pol δ also plays critical roles in various DNA repair pathways^32. It has been shown that Pol δ is the preferred polymerase for the D-loop extension during homologous recombination repair^33. Thus, we investigated the effect of zelpolib on HR efficiency. We used the two plasmid DR-GFP assay developed by Nakanishi et al^34, which is a modified version of the initial method^35. The first plasmid contains a mutant GFP that has lost the ability to fluoresce. The second plasmid contains the coding region of a restriction enzyme, I-SceI. The co-transfection of the two plasmids will result in the expression of I-SceI, which can digest the DR-GFP plasmid at the mutation site leading to the formation of a double strand break. […] Therefore, the percentage of fluorescent cells is the readout of the efficacy of HR. […] The efficacy of HR was analyzed about 40 hours later by flow cytometry.
# The efficacy of homologous recombination was analyzed by a two-plasmids system according to published protocol^34,35. […] Cellular fluorescence for GFP was measured by flow cytometry (Beckman coulter, MoFlo XDP). About 32,000 cells were analyzed per sample. […] The experiment was repeated three more times and statistics were calculated using GraphPad prism software.
# [2] = test system: BxPC-3 cells; test: Cell proliferation assay, MTT method; assay type: cell-based, human
# Source text: (§1) DNA replication precedes cell division. Thus, cancer cells cannot divide and proliferate without successful chromosomal duplication. A DNA polymerase inhibitor should inhibit cancer cell proliferation. We characterized the antiproliferative properties of zelpolib on a number of cell lines originated from pancreatic cancer (BxPC-3) and breast cancer (MCF7 for ER+ breast cancer). In addition, we developed a cisplatin resistant subline of a pancreatic cancer cell line, R-BxPC3 for our studies as well. We used the MTT method^25 for analyzing cell proliferation. This assay is based on the reduction of 3-(4,5-dimethylthiazol-2-yl)-2,5-diphenyltetrazolium bromide by live cells to an insoluble formazon, which were subsequently dissolved in DMSO and quantified by UV absorbance. Therefore, the cell number is proportional to the optical density in the established linear region. […] The plateau phenomena indicate inhibition of proliferation without cell killing, similar to these observed from hydroxyurea^26, aphidicolin^27, and to a certain extent, methotrexate treatments^28. Direct inhibition of DNA polymerase activity provides a unique mechanism that is not employed by any of the current cancer therapeutics. We selected a number of most widely prescribed chemotherapeutics with distinct mechanisms to compare their antiproliferative potential in the 2 cancer cell lines. We included alkylating agent cisplatin, antimetabolites methotrexate and 5-flourouracil (5FU)^29-31. […] Whereas the comparison with cisplatin is biphasic.
# (§2) Human cancer cells (5×10^3-7.5×10^3) were initially seeded in 96-well plates (Cellstar) containing 0.2 ml media per well. After 24 hrs, these cells were treated with variable concentrations drug combinations for 48-72 hrs. Subsequently, 4,5-dimethylthiazol-2-yl-2,5-diphenyltetrazolium bromide (MTT) (20 μl of 5 mg/ml) was added to each well for 3 hrs. Formazan crystals were then dissolved in 150 μl DMSO and optical density was read at 490 nm^25. All experiments were performed in triplicates. Results were analyzed by GraphPad Prism. Data represent mean value±SEM for each concentration of inhibitor combinations.
# [3] = test system: MCF7 cells; test: Cell proliferation assay, MTT method; assay type: cell-based, human
# Source text: as §1, §2
# [4] = biological target: T1, Pol δ (Homo sapiens, UniProt P28340); test: single nucleotide primer extension (incorporation) assay; assay type: biochemical; conditions: single dNTP present
# T1 construct: made in house; host or cells: insect cells (Pol δ); E. coli (PCNA)
# T1 sequence (P28340 whole entry): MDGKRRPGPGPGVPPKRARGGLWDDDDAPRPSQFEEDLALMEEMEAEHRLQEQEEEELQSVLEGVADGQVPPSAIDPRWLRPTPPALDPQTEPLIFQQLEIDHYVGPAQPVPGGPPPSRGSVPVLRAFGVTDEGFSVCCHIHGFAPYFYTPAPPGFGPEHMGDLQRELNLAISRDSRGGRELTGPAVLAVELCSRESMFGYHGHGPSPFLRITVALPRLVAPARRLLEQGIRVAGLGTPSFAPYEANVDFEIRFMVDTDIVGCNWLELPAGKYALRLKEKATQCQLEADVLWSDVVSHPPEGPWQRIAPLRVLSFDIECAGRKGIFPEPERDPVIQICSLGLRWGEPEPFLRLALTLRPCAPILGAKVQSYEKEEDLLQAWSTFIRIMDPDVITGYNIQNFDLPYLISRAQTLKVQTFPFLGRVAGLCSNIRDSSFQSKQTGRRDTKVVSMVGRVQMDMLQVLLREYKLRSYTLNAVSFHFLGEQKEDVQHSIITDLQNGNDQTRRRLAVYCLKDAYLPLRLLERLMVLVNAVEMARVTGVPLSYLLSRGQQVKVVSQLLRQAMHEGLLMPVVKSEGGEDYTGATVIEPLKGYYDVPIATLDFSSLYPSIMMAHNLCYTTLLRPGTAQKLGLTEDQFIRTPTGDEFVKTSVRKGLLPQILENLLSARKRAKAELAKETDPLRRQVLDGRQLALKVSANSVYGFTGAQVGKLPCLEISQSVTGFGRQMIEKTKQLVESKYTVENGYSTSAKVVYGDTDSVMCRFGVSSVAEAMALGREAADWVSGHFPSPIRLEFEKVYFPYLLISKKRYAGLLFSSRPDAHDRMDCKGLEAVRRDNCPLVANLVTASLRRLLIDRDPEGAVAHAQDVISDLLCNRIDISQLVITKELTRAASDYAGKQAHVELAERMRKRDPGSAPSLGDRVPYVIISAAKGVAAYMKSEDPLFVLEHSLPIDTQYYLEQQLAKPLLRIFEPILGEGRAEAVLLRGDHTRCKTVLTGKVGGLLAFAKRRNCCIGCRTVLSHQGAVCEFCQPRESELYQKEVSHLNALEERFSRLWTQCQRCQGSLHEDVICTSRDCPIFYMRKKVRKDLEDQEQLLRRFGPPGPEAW
# T1 sequence (P49005 whole entry partner): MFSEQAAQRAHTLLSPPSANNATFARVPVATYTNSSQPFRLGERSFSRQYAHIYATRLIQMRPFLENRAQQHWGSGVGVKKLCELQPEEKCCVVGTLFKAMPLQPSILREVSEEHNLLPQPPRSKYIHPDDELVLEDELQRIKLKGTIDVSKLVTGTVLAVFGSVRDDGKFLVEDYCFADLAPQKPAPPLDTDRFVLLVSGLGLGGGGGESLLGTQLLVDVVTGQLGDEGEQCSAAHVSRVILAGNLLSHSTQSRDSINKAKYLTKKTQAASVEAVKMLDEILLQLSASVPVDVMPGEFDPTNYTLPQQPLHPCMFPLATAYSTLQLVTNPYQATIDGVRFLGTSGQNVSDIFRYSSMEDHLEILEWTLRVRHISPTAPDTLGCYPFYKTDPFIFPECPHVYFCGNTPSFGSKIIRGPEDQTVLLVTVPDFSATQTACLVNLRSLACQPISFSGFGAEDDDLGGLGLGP
# T1 sequence (Q15054 whole entry partner): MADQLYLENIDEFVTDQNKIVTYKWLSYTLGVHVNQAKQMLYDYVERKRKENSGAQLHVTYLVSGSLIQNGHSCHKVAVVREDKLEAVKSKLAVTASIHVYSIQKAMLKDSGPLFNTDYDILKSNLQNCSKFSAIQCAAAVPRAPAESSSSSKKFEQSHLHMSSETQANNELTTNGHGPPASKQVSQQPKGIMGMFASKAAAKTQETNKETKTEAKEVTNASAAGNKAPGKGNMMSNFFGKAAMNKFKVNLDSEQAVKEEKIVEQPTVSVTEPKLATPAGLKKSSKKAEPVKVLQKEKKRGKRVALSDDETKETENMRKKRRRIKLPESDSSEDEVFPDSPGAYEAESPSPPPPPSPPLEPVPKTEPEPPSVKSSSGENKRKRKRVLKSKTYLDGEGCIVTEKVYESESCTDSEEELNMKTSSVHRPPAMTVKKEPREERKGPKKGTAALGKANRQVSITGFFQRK
# T1 sequence (P12004 whole entry partner): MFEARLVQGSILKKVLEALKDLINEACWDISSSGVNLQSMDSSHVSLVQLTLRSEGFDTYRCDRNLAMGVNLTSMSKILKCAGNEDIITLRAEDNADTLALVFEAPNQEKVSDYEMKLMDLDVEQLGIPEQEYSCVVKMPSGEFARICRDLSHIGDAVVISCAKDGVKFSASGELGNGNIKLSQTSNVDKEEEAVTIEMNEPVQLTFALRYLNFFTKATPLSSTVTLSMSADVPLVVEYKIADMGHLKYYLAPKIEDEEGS
# Experimental: In our in silico screening, the active site cavity was created by the removal of dCTP in the original crystal structure. […] Therefore, we assayed the inhibition patterns of 4 individual dNTP molecules in a single nucleotide incorporation assays. In this assay, only one nucleotide is present for the primer extension for the next appropriate base paring to the template.
# Briefly, the standard reaction mixture contained 5 μM dNTP, 5 mM MgCl2, 50 mM Tris-HCl (pH 7.5), 2 mM dithiothreitol, […] BSA, 50 mM NaCl, 20 nM primer/template, 50 nM PCNA, 10 nM Pol δ and variable concentrations of inhibitors. The reactions were initiated by addition of dNTPs and MgCl2. Reaction was allowed to proceed at 25° C. for 2 min before addition of stop buffer (95% formamide/25 mM EDTA). The products were separated on a 20% polyacrylamide gels urea. Products was visualized on phosphorimager and quantitated using Image-J software. For single nucleotide primer extension assay^18, the protocol is identical to primer extension assay except a single dNTP is used.
smiles,measurement,setting,value
COC(=O)c1cc(-c2ccccc2)sc1NC(=S)NNC(=O)CCc1ccc(O)c(O)c1 [zelpolib],reduction in HR efficacy,[1]; 20 μM zelpolib,comparable to those induced by siRNA knockdown of BRCA1 or BRCA2 individually
same,inhibition of homologous recombination (percentage of GFP fluorescent cells),"[1]; two concentrations, about 40 hours",dose-dependent inhibition of HR
same,antiproliferative activity compared with cisplatin,"[2]; BxPC-3, MTT",superior to cisplatin up to 10 μM
same,antiproliferative activity compared with methotrexate and 5-FU,"[2]; BxPC-3, MTT",superior to methotrexate and 5-FU at all concentrations
same,concentration at which antiproliferative effect reaches a plateau,"[2]; BxPC-3, MTT",about 5 μM
same,cytotoxicity,"[2]; zelpolib alone, cell lines not specified",minimal cell cytotoxicity
same,concentration at which antiproliferative effect reaches a plateau,[3],about 5 μM
same,antiproliferative activity compared with methotrexate and 5-FU,[3]; 72 h,superior to methotrexate and 5-FU across the concentration range
same,"antiproliferative activity, zelpolib versus cisplatin",[3]; 72 h,at least as effective as cisplatin in inhibiting MCF7 cell growth up to 5 μM
same,"inhibition of incorporation of individual dNTPs (dATP, dGTP, dCTP, dTTP)",[4],inhibited the incorporation of all four nucleotides to similar extents in a noncompetitive manner

# — patent US11324720B2, “Antiproliferative DNA polymerase inhibitor” (NEW YORK MEDICAL COLLEGE, priority 2018, dated 2022)
